In US9156845B2, “4-(substituted amino)-7H-pyrrolo[2,3-d] pyrimidines as LRRK2 inhibitors” (Pfizer Inc., priority 2012, dated 2015):

Tests used:
[1] = target: GST-tagged truncated LRRK2 (Homo sapiens (Human), UniProt Q5S007); experiment: LRRK2 Lantha Screen kinase assay; type: biochemical; details: geometric mean of 2-5 determinations unless otherwise indicated (a: >=6 determinations; b: single determination); read-out: LRRK2 WT IC50
Procedure: LRRK2 kinase activity was measured using Lantha Screen technology from Invitrogen. GST-tagged truncated LRRK2 from Invitrogen (Cat # PV4874) was incubated with a fluorescein-labeled peptide substrate based upon ezrin/radixin/moesin (ERM), also known as LRRKtide (Invitrogen cat #PR8976A), in the presence of a dose response of compound. Upon completion, the assay was stopped and detected with a terbium labeled anti-phospho-ERM antibody (Invitrogen, cat #PR8975A). […] Aliquots (3.5 μL) of the 100% DMSO dose response were mixed with 46.5 μL water then 1 μL of this mixture was added to the 3 μL substrate mix in the 384-well plate. The kinase reaction was started with 3 μL of a working solution of LRRK2 enzyme at a concentration of 4 μg/mL. […] The reaction was allowed to progress at room temperature for two hours and then stopped with the addition of 7 μL of detection buffer (20 mM Tris pH 7.6, 0.01% NP-40, 0.02% NaN3, 6 mM EDTA with 2 nM terbium labeled anti-phospho-ERM).

[2] = target: mutant G2019S LRRK2 (Homo sapiens (Human), UniProt Q5S007, G2019S); experiment: LRRK2 Lantha Screen kinase assay, mutant enzyme; type: biochemical; details: geometric mean of 2-5 determinations unless otherwise indicated (a: >=6 determinations; b: single determination)
Chain of mutant G2019S LRRK2 (Q5S007 970-2527 G2019S): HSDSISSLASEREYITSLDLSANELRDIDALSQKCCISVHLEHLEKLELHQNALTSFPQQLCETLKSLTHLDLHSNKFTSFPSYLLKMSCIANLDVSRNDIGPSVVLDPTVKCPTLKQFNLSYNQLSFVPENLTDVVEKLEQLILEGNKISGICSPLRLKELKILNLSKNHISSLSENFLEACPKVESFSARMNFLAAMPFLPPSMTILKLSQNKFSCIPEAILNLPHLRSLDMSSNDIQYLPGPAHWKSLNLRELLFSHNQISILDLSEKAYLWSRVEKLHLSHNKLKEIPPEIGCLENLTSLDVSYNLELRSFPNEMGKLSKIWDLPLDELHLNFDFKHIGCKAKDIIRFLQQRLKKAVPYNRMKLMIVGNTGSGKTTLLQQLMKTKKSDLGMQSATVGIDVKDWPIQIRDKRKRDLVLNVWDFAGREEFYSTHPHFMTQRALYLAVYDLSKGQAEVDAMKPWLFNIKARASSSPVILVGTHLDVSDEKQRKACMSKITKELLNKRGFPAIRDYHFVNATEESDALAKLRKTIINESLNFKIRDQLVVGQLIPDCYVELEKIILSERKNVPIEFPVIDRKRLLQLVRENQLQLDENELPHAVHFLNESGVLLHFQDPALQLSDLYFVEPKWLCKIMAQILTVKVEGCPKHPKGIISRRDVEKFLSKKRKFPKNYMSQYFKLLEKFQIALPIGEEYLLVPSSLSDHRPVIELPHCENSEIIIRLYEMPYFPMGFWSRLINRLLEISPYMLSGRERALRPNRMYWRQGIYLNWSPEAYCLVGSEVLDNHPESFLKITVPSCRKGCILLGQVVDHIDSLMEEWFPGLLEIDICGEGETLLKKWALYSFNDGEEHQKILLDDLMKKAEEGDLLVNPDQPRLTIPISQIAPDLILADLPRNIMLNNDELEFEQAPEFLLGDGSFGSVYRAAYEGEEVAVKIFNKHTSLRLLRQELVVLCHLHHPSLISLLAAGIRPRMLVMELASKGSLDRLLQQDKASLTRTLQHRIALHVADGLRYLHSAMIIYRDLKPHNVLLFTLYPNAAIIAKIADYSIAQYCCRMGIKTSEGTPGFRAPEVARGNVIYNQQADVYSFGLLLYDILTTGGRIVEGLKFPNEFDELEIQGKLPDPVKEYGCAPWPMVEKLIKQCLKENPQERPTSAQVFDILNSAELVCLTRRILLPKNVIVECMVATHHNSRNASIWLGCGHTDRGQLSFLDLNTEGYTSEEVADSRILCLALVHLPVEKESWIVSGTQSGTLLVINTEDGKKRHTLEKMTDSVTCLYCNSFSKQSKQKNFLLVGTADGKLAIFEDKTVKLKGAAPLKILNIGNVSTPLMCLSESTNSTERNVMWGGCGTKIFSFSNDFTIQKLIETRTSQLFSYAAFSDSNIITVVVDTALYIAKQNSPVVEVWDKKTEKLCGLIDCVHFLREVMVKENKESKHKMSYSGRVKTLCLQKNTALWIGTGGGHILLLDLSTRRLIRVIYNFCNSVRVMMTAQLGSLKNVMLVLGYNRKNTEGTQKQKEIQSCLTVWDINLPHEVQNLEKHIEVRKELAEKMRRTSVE

Chain of GST-tagged truncated LRRK2 (Q5S007 970-2527): as the sequence (Q5S007 970-2527 G2019S) above, with S1050G counted along it

Compound | IC50 [1] [nM] | IC50 [2] [nM]
Cn1cc(-c2c[nH]c3ncnc(N4CCSCC4)c23)cn1 [Example 119, 5-(1-methyl-1H-pyrazol-4-yl)-4-(thiomorpholin-4-yl)-7H-pyrrolo[2,3-d]pyrimidine] | 71 | 51
C[C@H]1CCCN(c2ncnc3[nH]cc(-c4cccnc4)c23)C1 [Example 51, 4-[(3S)-3-methylpiperidin-1-yl]-5-(pyridin-3-yl)-7H-pyrrolo[2,3-d]pyrimidine] | 56 | 95
N#Cc1cccc(-c2c[nH]c3ncnc(N4CCC(F)(F)C4)c23)c1 [Example 136, 3-[4-(3,3-difluoropyrrolidin-1-yl)-7H-pyrrolo[2,3-d]pyrimidin-5-yl]benzonitrile] | 74 | 194
CN(C)c1ncnc2[nH]cc(-c3cc(C#N)ccc3F)c12 [Example 72, 3-[4-(dimethylamino)-7H-pyrrolo[2,3-d]pyrimidin-5-yl]-4-fluorobenzonitrile] | 37 | 190
C[C@H]1CCCN(c2ncnc3[nH]cc(-c4cnn(C)c4)c23)C1 [Example 17, 4-[(3S)-3-methylpiperidin-1-yl]-5-(1-methyl-1H-pyrazol-4-yl)-7H-pyrrolo[2,3-d]pyrimidine] | 14 | 12
C[C@H]1CCCN(c2ncnc3[nH]cc(-c4ccc5c(c4)CNC5=O)c23)C1 [Example 50, 5-{4-[(3S)-3-methylpiperidin-1-yl]-7H-pyrrolo[2,3-d]pyrimidin-5-yl}-2,3-dihydro-1H-isoindol-1-one] | 33 | 33
c1ccc2c(-c3c[nH]c4ncnc(N5CCOCC5)c34)cncc2c1 [Example 104, 4-[4-(morpholin-4-yl)-7H-pyrrolo[2,3-d]pyrimidin-5-yl]isoquinoline] | 27 | 51
Fc1cccc(-c2c[nH]c3ncnc(N4CCOCC4)c23)c1 [Example 91, 5-(3-fluorophenyl)-4-(morpholin-4-yl)-7H-pyrrolo[2,3-d]pyrimidine] | 9 | 21
Cc1cnc(Cl)c(-c2c[nH]c3ncnc(N4CCC[C@H](C)C4)c23)c1 [Example 59, 5-(2-chloro-5-methylpyridin-3-yl)-4-[(3S)-3-methylpiperidin-1-yl]-7H-pyrrolo[2,3-d]pyrimidine] | 30 | 30
COc1ccc(C#N)cc1-c1c[nH]c2ncnc(N(C)C)c12 [Example 24, 3-[4-(dimethylamino)-7H-pyrrolo[2,3-d]pyrimidin-5-yl]-4-methoxybenzonitrile] | 24 | 30
Fc1cccc(-c2c[nH]c3ncnc(N4CCOCC4)c23)c1F [Example 87, 5-(2,3-difluorophenyl)-4-(morpholin-4-yl)-7H-pyrrolo[2,3-d]pyrimidine] | 12 | 24
COc1ccc(F)cc1-c1c[nH]c2ncnc(N3CCOCC3)c12 [Example 94, 5-(5-fluoro-2-methoxyphenyl)-4-(morpholin-4-yl)-7H-pyrrolo[2,3-d]pyrimidine] | 7 | 10
COc1cc(F)cc(-c2c[nH]c3ncnc(N4CCOCC4)c23)c1 [Example 85, 5-(3-fluoro-5-methoxyphenyl)-4-(morpholin-4-yl)-7H-pyrrolo[2,3-d]pyrimidine] | 9 | 20
Clc1cccc(-c2c[nH]c3ncnc(N4CCOCC4)c23)c1 [Example 83, 5-(3-chlorophenyl)-4-(morpholin-4-yl)-7H-pyrrolo[2,3-d]pyrimidine] | 8 | 13
N#Cc1cccc(-c2c[nH]c3ncnc(N4CCC[C@H](O)C4)c23)c1 [Example 14, 3-{4-[(3S)-3-hydroxypiperidin-1-yl]-7H-pyrrolo[2,3-d]pyrimidin-5-yl}benzonitrile] | 17 | 95
CN(C)c1ncnc2[nH]cc(-c3ccccc3)c12 [Example 68, N,N-dimethyl-5-phenyl-7H-pyrrolo[2,3-d]pyrimidin-4-amine] | 63 | 39

The next lines start with the values.

IC50 [1] [nM] | IC50 [2] [nM] | Compound
29 | 38 | COc1cc(F)cc(-c2c[nH]c3ncnc(N4CCCC(O)C4)c23)c1 (centres unmarked) [Example 164, 1-[5-(3-fluoro-5-methoxyphenyl)-7H-pyrrolo[2,3-d]pyrimidin-4-yl]piperidin-3-ol]
41 | 49 | COc1cc(F)cc(-c2c[nH]c3ncnc(N(C)C)c23)c1 [Example 177, 5-(3-fluoro-5-methoxyphenyl)-N,N-dimethyl-7H-pyrrolo[2,3-d]pyrimidin-4-amine]
27.2 | 186 | N#Cc1cccc(-c2c[nH]c3ncnc(N4CCO[C@H]5CCC[C@H]54)c23)c1 (relative stereo) [Example 208, rel-3-{4-[(4aR,7aS)-hexahydrocyclopenta[b][1,4]oxazin-4(4aH)-yl]-7H-pyrrolo[2,3-d]pyrimidin-5-yl}benzonitrile]
223 | 687 | N#Cc1cccc(-c2c[nH]c3ncnc(N4CC5COCC5C4)c23)c1 [Example 207, rel-3-{4-[(3aS,6aS)-tetrahydro-1H-furo[3,4-c]pyrrol-5(3H)-yl]-7H-pyrrolo[2,3-d]pyrimidin-5-yl}benzonitrile]
19 | 30 | COc1ccc(F)cc1-c1c[nH]c2ncnc(N3CCO[C@@H](C)C3)c12 [Example 179, 5-(5-fluoro-2-methoxyphenyl)-4-[(2S)-2-methylmorpholin-4-yl]-7H-pyrrolo[2,3-d]pyrimidine]
37.4 | 135 | Cc1nc2sccn2c1-c1c[nH]c2ncnc(N3CCOCC3)c12 [Example 218, 5-(6-methylimidazo[2,1-b][1,3]thiazol-5-yl)-4-(morpholin-4-yl)-7H-pyrrolo[2,3-d]pyrimidine]
30 | 51 | N#Cc1cccc(OCC2CN(c3ncnc4[nH]cc(-c5cccc(C#N)c5)c34)CCO2)c1 (centres unmarked) [Example 137, 3-(4-{2-[(3-cyanophenoxy)methyl]morpholin-4-yl}-7H-pyrrolo[2,3-d]pyrimidin-5-yl)benzonitrile]
69 | 36 | N#Cc1cccc(-c2c[nH]c3ncnc(Nc4cn[nH]c4)c23)c1 [Example 144, 3-[4-(1H-pyrazol-4-ylamino)-7H-pyrrolo[2,3-d]pyrimidin-5-yl]benzonitrile]
55 | 155 | Cc1nc(CC2CN(c3ncnc4[nH]cc(-c5cccc(C#N)c5)c34)CCO2)no1 (centres unmarked) [Example 145, 3-(4-{2-[(5-methyl-1,2,4-oxadiazol-3-yl)methyl]morpholin-4-yl}-7H-pyrrolo[2,3-d]pyrimidin-5-yl)benzonitrile]
79 | 193 | N#Cc1cccc(-c2c[nH]c3ncnc(N4CCOC(c5ccncn5)C4)c23)c1 (centres unmarked) [Example 141, 3-{4-[2-(pyrimidin-4-yl)morpholin-4-yl]-7H-pyrrolo[2,3-d]pyrimidin-5-yl}benzonitrile]
25 | 34 | COc1cccc(F)c1-c1c[nH]c2ncnc(N3CCOCC3)c12 [Example 190, 5-(2-fluoro-6-methoxyphenyl)-4-(morpholin-4-yl)-7H-pyrrolo[2,3-d]pyrimidine]
67 | 74 | COc1ccccc1-c1c[nH]c2ncnc(N3CCC(F)CC3)c12 [Example 159, 4-(4-fluoropiperidin-1-yl)-5-(2-methoxyphenyl)-7H-pyrrolo[2,3-d]pyrimidine]
